Data as given in patent US20170049843A1, “Hepatocyte Growth Factor Mimics as Therapeutic Agents” (WASHINGTON STATE UNIVERSITY, priority 2011, published 2017).
“Also recorded” adds a separate entry of the source. Where a SMILES comes first, the peptide text is derived from it. [ ]: non-standard residue; d: D form. dNle = CCCC[C@@H](N)C(=O)O; Ahx = NCCCCCC(=O)O

Key:
HGF [1] = biological target: T1, HGF (Homo sapiens, UniProt P14210); experiment: HGF binding, competition with 3H-Hinge
T1 construct: purchased R&D Systems (Minneapolis, Minn.)
T1 sequence (P14210 32-728): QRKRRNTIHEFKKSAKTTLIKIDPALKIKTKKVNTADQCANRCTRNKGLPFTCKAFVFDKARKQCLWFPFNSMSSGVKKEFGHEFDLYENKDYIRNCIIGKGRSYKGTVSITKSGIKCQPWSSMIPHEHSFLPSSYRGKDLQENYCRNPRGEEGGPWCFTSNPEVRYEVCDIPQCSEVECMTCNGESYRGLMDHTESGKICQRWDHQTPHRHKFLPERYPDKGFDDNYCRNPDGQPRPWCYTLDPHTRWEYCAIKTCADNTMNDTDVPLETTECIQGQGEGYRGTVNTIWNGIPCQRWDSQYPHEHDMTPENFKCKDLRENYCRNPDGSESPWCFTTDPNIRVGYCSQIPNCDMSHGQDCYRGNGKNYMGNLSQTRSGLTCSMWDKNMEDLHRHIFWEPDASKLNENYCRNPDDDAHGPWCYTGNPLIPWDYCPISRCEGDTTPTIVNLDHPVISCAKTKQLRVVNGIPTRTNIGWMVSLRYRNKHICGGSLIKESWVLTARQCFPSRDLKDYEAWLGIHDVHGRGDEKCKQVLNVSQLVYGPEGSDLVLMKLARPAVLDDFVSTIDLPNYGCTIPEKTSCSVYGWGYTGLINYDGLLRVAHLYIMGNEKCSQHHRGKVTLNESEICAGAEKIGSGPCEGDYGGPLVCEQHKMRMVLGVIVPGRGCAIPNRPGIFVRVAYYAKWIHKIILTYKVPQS
Experimental: The binding of 6-AH analogs to HGF was assessed by competition using a soluble binding assay. 250 μl of PBS containing human HGF (1.25 ng) were incubated with ^3H-Hinge, the central dimerization domain of HGF, in the presence of varying concentrations of 6-AH analogs between 10^−13 M to 10^−7M (half-log dilutions) for 40 min at 37° C. The incubates were then spun through Bio-Gel P6 spin columns (400 μl packed volume) for 1 min to separate free and bound ^3H-Hinge and the eluent was collected. Five milliliters of scintillation fluid was added to the eluent, which contained the HGF bound ^3H-Hinge, and was then counted using scintillation counter. Total disintegrations per minute of bound ^3H-Hinge were calculated based on machine counting efficiency. The Ki values for the binding of the peptides were determined using the Prism 5. Competition binding curves were performed in triplicate.

HGF [2] = biological target: T1, HGF; experiment: HGF dimerization; assay type: biochemical; settings: analog at 10^−10M, 30 minute incubation with heparin
Experimental: HGF dimerization was assessed using PAGE followed by silver staining (Kawas et al., 2011). Human HGF at a concentration of 0.08 ng/μl with or without 6-AH analogs was incubated with heparin at a final concentration of 5 μg/ml. Loading buffer was then added to each sample and the mixture separated by native PAGE using gradient Criterion XT precast gels (4-12% Bis-Tris; Biorad Laboratories, Hercules, Calif.). Next the gel was silver stained for the detection of the HGF monomers and dimers. Bands were quantitated from digital images using a UVP phosphoimager (Upland, Calif.).

Met = experiment: Inhibition of HGF-dependent Met phosphorylation in HEK293 cells; assay type: cell-based, human; settings: 10 min
Experimental: HEK293 cells were seeded in 6 well tissue culture plates and grown to 95% confluency in DMEM containing 10% FBS. The cells were serum deprived for 24 h prior to the treatment to reduce the basal levels of phospho-Met. Following serum starvation, cocktails comprised of vehicle and HGF with/without 6-AH analogs were prepared and pre-incubated for 30 min at room temperature. The cocktail was then added to the cells for 10 min to stimulate the Met receptor and downstream proteins. Cells were harvested using RIPA lysis buffer (Millipore; Billerica, Mass.) fortified with phosphatase inhibitor cocktails 1 and 2 (Sigma-Aldrich; St. Louis, Mo.). The lysate was clarified by centrifugation at 15,000 n×g for 15 min, protein concentrations were determined using the BCA total protein assay (Pierce), and then appropriate volumes of the lysates were diluted with 2× reducing Laemmli buffer and heated for ten min at 95° C. Samples containing identical amounts of protein were resolved using SDS-PAGE (Criterion, BioRad Laboratories), transferred to nitrocellulose, and blocked in Tris-buffered saline (TBS) containing 5% milk for 1 h at room temperature. The phospho-Met antibody were added to the blocking buffer at a final concentration of 1:1000 and incubated at 4° C. overnight with gentle agitation. The membranes were then washed several times with water and TBS ([…]), a 1:5000 dilution of horseradish-peroxidase conjugated goat anti-rabbit antiserum was added, and the membranes further incubated for 1 h at room temperature. Proteins were visualized using the Supersignal West Pico Chemiluminescent Substrate system (Pierce, Fenton, Mo.) and molecular weights determined by comparison to protein ladders (BenchMark, Invitrogen, and Kaleidoscope, BioRad). Film images were digitized and analyzed using a UVP phosphoimager.

MDCK cells [3] = experiment: HGF-dependent MDCK cell proliferation (MTT); assay type: cell-based, canine; settings: 10^−10 M, 4 days, HGF 10 ng/ml
Experimental: 5000 MDCK cells were seeded into the wells of a 96 well plates in 10% FBS DMEM. To induce cellular quiescence, the cells were serum deprived for 24 h prior to initiating the treatments. Following serum starvation, 10 ng/ml HGF alone and with various concentrations of 6-AH analogs or PBS vehicle were added to the media. The cells were allowed to grow under these conditions for 4 days with a daily addition of 6-AH analogs. On the fourth day, 1 mg/ml of 1-(4, 5-Dimethylthiazol-2-yl) 3, 5-diphenylformazan reagent (MTT, Sigma-Aldrich) prepared in PBS was added to the cells and incubated for 4 h. Dimethyl sulfoxide diluted in a 0.01M glycine buffer was added to solubilize the cell membranes and the absorbance of reduced MTT in the buffer was quantitated at 590 nm using a plate reader (Biotek Synergy 2, Winooski, Vt.). HGF-dependent proliferation was determined by subtracting the basal proliferation (in the absence of HGF) from total proliferation rates in groups containing HGF.

MDCK cells [4] = experiment: Inhibition of HGF-dependent scattering in MDCK cells; assay type: cell-based, canine; settings: HGF 20 ng/ml, 48 h
Experimental: (§1) MDCK cells were grown to 100% confluency on the coverslips in six-well plates and washed twice with PBS. The confluent coverslips were then aseptically transferred to new six well plates containing 900 μl serum free DMEM. Norleual, Hinge peptide, and/or HGF (20 ng/ml) were added to appropriate wells. Control wells received PBS vehicle. Plates were incubated at 37° C. with 5% CO2 for 48 hours. Media was removed and cells were fixed with methanol. Cells were stained with Diff-Quik Wright-Giemsa (Dade-Behring, Newark, Del.) and digital images were taken. Coverslips were removed with forceps and more digital images were captured. Pixel quantification of images was achieved using Image J and statistics were performed using Prism 5 and InStat v.3.05.
as §1, with “h.” for “hours.”, “v.3.05 (GraphPad; San Diego, Calif.).” for “v.3.05.”

[5] = Microsomal metabolism, rat liver microsomes; assay type: in vitro ADME; settings: over 90 min, data not shown
in vivo = settings: male, Sprague-Dawley, rat, iv, 24 mg/kg
[6] = system: B16-F10 murine melanoma cells; experiment: B16-F10 melanoma lung colony formation; assay type: in vivo, mouse; settings: C57BL/6 mice, daily IP 10 μg/kg/day or 100 μg/kg/day, 14 days
Experimental: Six to eight month old C57BL/6 mice were injected with 400,000 B16-F10 cells in 200 μl PBS by tail vein injection and subsequently received daily intraperitoneal injections of either D-Nle-X-Cys-NH—(CH2)5—CONH2 (10 μg/kg and 100 μg/kg) or a PBS vehicle control. Two weeks later, mice were anesthetized and lungs were perfused with PBS and removed. Photos were taken and lungs were solubilized in 1% Triton x-100, 20 mM Tris, 0.15 M NaCl, 2 mM EDTA, and 0.02% sodium azide. Samples were disrupted by sonication (Mixonix, Farmingdale, N.Y.) and spun. The supernatant was transferred to a 96 well plate and melanin absorbance at 410 nm was measured using a plate reader.

affinity for HGF (in words) (HGF [1]) | inhibition of HGF dimerization (HGF [2]) | Phase I metabolism in rat liver microsomes [5] | C0 (in vivo) [µg/mL] | SMILES | inhibition of HGF dimerization (HGF [2]; listed as Tyr) | inhibition of HGF-dependent Met phosphorylation (Met) | inhibition of HGF-dependent MDCK cell proliferation (MDCK cells [3]) | inhibition of HGF-dependent scattering in MDCK cells (MDCK cells [4]) | inhibition of HGF dimerization (HGF [2]; listed as Cys) | pulmonary colonization by B16-F10 melanoma cells [6]
bind HGF with high affinity | completely block HGF dimer formation | no detectable metabolism over 90 min | 68.2 ± 32.2 | CCCC[C@@H](N)C(=O)N[C@@H](Cc1ccc(O)cc1)C(=O)N[C@H](C(=O)NCCCCCC(N)=O)[C@@H](C)CC (H-[dNle]YI[Ahx]-NH2) | statistically different than the HGF treated group | able to block Met auto-phosphorylation | marked inhibitory activity | different from the HGF alone group but not different from the control group |  | 
bind HGF with high affinity | completely block HGF dimer formation |  |  | CCCC[C@@H](N)C(=O)N[C@@H](CS)C(=O)N[C@H](C(=O)NCCCCCC(N)=O)[C@@H](C)CC [D-Nle-Cys-Ile-NH—(CH2)5—CONH2] (H-[dNle]CI[Ahx]-NH2) |  | able to block Met auto-phosphorylation | marked inhibitory activity | different from the HGF alone group but not different from the control group | statistically different than the HGF treated group | suppressed pulmonary colonization; also recorded: radically prevented lung colonization; also recorded: obvious reduction in melanoma colonies
